Structures can show the parent of a compound that is named as a salt.
What was measured:
Staph. aureus (Russell) = test: MIC, serial dilution in nutrient agar, synergism with ampicillin; format: cell-based; settings: alone
[1] = system: Staph. aureus (Russell H); test: as above; format: cell-based; settings: alone
Proteus mirabilis 889 = test: as above; format: cell-based; settings: alone
Proteus mirabilis 247 = test: as above; format: cell-based; settings: alone
E. coli JT39 = test: as above; format: cell-based; settings: alone
E. coli B11 = test: as above; format: cell-based; settings: alone
Proteus rettgeri R110 = test: as above; format: cell-based; settings: alone
Escherichia coli 10418 = test: bioautography zone diameter (cellulose TLC); format: cell-based; settings: butanol/isopropyl alcohol/water 7:7:6
[2] = system: B. subtilis, Staphylococcus aureus, Escherichia coli, Salmonella typhimurium, Proteus mirabilis, Proteus morganii and Klebsiella aerogenes; test: detection by bioautography after cellulose TLC (qualitative); format: cell-based, various bacterial species; settings: n-butanol:isopropanol:water 7:7:6
[3] = system: Staphylococcus aureus (Oxford); test: bioautography zone diameter (cellulose TLC); format: cell-based; settings: butanol/isopropyl alcohol/water 7:7:6
[4] = system: β-lactamase of Escherichia coli B11; test: I50 determination: inhibition of hydrolysis of ampicillin by E. coli B11 β-lactamase (starch-iodometric assay); format: biochemical; settings: MM 4550A
From the text: This β-lactamase is classified as a type IIIa enzyme according to the classification of Richmond and Sykes [Adv. in Microbiol.Physiol. 9 31 (1973)]
The rate of β-lactamase hydrolysis of ampicillin to its penicilloic acid can be followed by a starch-iodometric assay in which one measures the rate of formation of penicilloic acid by following the decolorization of a starch-iodine complex. This method and the preparation of the β-lactamase are described in a paper by Cole M., Elson S., and Fullbrook P.D. (Biochemical Journal 1972, 127, 295-308). […] The procedure was as follows:
Buffer: 0.05M pH7 potassium phosphate buffer
Prepared from E. coli B11 as described by Cole
Enzyme: et al, Biochem. J. (1972) 127, 295. The dilution
of the enzyme preparation in buffer was such as
to give a fall of about 0.3 optical density
units per 100 secs. in the uninhibited reaction.
The reactions were carried out in 1 cm cuvettes at 37° C. in an SP 800 Pye Unicam spectrophotometer. This instrument can carry four sample cuvettes and their corresponding blanks. The first cuvette was used for the control reaction and contained no inhibitor. The 2nd, 3rd and 4th cuvettes were used for various dilutions of the inhibitor.
Inhibitor of buffer 0.1 ml 0.1 ml
Substrate (added after incubation […]

Bacillus subtilis = test: bioautography zone diameter (cellulose TLC); format: cell-based; settings: butanol/isopropyl alcohol/water 7:7:6
solubility = settings: sodium salt
[5] = system: Escherichia coli, Klebsiella aerogenes, Proteus mirabilis, Proteus morganii and Staphylococcus aureus Russell; test: synergy with ampicillin (qualitative); format: cell-based
[6] = target: Escherichia coli β-lactamase (Escherichia coli, UniProt P62593); test: β-lactamase inhibition (qualitative); format: biochemical
Chain of Escherichia coli β-lactamase (P62593 24-286 limits assumed): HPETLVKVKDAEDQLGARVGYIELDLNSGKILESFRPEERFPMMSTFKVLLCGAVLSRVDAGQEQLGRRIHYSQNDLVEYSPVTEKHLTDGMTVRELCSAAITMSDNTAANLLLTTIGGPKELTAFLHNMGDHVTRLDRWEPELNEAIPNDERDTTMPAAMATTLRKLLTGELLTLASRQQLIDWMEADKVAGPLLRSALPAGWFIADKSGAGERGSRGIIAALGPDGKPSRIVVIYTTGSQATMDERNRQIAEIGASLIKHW
From the text: In a further experiment, the two substances were separated on a cellulose thin layer developed with isopropanol:water (8:2) and extracted from the cellulose with phosphate buffer.

Klebsiella aerogenes = test: bioautography zone diameter (cellulose TLC); format: cell-based; settings: butanol/isopropyl alcohol/water 7:7:6
Enterobacter aerogenes = test: bioautography zone diameter (cellulose TLC); format: cell-based; settings: butanol/isopropyl alcohol/water 7:7:6
[7] = system: Staphylococcus aureus (Russell); test: bioautography zone diameter (cellulose TLC); format: cell-based; settings: butanol/isopropyl alcohol/water 7:7:6
Proteus morganii = test: bioautography zone diameter (cellulose TLC); format: cell-based; settings: butanol/isopropyl alcohol/water 7:7:6
[8] = target: β-lactamases produced by Staphylococcus aureus (Staphylococcus aureus, UniProt P00807); test: β-lactamase inhibition (qualitative); format: biochemical
Chain of β-lactamases produced by Staphylococcus aureus (P00807 25-281): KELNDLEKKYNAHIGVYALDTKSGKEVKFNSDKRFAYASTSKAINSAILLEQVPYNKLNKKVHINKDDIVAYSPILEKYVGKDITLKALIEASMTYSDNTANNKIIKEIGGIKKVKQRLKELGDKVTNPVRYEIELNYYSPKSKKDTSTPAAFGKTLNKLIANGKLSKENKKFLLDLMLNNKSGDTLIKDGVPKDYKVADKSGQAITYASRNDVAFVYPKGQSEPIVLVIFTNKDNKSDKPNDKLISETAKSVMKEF

[9] = system: various species including strains of Staphylococcus aureus, Bacillus subtilis, Escherichia coli, Klebsiella aerogenes, Proteus mirabilis; test: antibacterial activity (qualitative); format: cell-based, various bacterial species; settings: sodium salt, inter alia S. aureus, B. subtilis, E. coli, K. aerogenes, P. mirabilis
[10] = system: β-lactamases produced by Klebsiella aerogenes; test: β-lactamase inhibition (qualitative); format: biochemical
[11] = specific activity relative to culture filtrate (arbitrary units)
Method: The material produced above was arbitrarily assigned an activity of 340 1/ml. Assays were determined as described in Description 3.

stability = format: physicochemical; settings: monobasic salts and free acid

Work on `CC1(C)S[C@@H]2[C@H](NC(=O)[C@H](N)c3ccccc3)C(=O)N2[C@H]1C(=O)O` [Ampicillin, ampicillin] yielded a minimum inhibitory concentration (Staph. aureus (Russell)) of 250, a minimum inhibitory concentration [1] of over 500 and a minimum inhibitory concentration (Proteus mirabilis 889) of over 500. For the same compound, the minimum inhibitory concentration (Proteus mirabilis 247) was over 500, the minimum inhibitory concentration (E. coli JT39) was over 500 and the minimum inhibitory concentration (E. coli B11) was over 500. For the same compound, the minimum inhibitory concentration (Proteus rettgeri R110) was 250.
With `CC(=O)N/C=C/[S+]([O-])C1=C(C(=O)O)N2C(=O)C(C(C)OS(=O)(=O)O)C2C1` (stereo not shown) [MM 4550A] the “Zone Diameter on Bioautography” value (Escherichia coli 10418) was 20.0 mm, the detection by bioautography [2] was “may be detected by bioautography on a variety of organisms” and the “Zone Diameter on Bioautography” value [3] was 13.0 mm. For the same compound, the I50 [4] was “less than 0.0001 μg/ml”, the “Zone Diameter on Bioautography” value (Bacillus subtilis) was 24.0 mm and the “solubility in chloroform, diethylether and hydrocarbons” value (solubility) was “substantially insoluble”. For the same compound, the solubility in methanol (solubility) was “soluble”, the solubility in water (solubility) was “highly soluble” and the “synergy when mixed with ampicillin” value [5] was “synergyses its activity”. The “enzyme inhibitory activity against β-lactamase” value (“enzyme inhibitory activity” below) [6] was “possesses enzyme inhibitory activity”, the “Zone Diameter on Bioautography” value (Klebsiella aerogenes) was 20.0 mm and the “Zone Diameter on Bioautography” value (Enterobacter aerogenes) was 6.5 mm. The “Zone Diameter on Bioautography” value [7] was 12.0 mm, the “Zone Diameter on Bioautography” value (Proteus morganii) was 16.0 mm and the “enzyme inhibitory activity” value [8] was “possesses enzyme inhibitory activity”. For the same compound, the “antibacterial activity against various species” value ([9]; Acinetobacter anitratus, Serratia, Shigella sonnei) was “possesses antibacterial activity” and the “enzyme inhibitory activity” value [10] was “possesses enzyme inhibitory activity”.
In the case of `CC(=O)N/C=C/SC1=C(C(=O)O)N2C(=O)C(C(C)OS(=O)(=O)O)C2C1` (stereo not shown) [MM 13902 di-sodium salt], the activity ([11]; after cellulose chromatography, yellowish powder) was 73,000 units/mg.
In the case of `CC(=O)N/C=C/SC1=C(C(=O)O)N2C(=O)C(C(C)OS(=O)(=O)O)C2C1` (stereo not shown) [MM 13902], the “stability to isolation from mixtures such as MM 4550 (Complex)” value (stability) was “not sufficiently stable to isolate from mixtures”, the detection by bioautography [2] was “may be detected by bioautography on a variety of organisms” and the “solubility in chloroform, diethylether and hydrocarbons” value (solubility) was “substantially insoluble”. The solubility in methanol (solubility) was “soluble”, the solubility in water (solubility) was “highly soluble” and the “synergy when mixed with ampicillin” value [5] was “synergizes its activity”. The “Zone Diameter on Bioautography” value (Enterobacter aerogenes) was “No Zone”, the “antibacterial activity against various species” value ([9]; Salmonella typhi, Ps. aeruginosa) was “possessed antibacterial activity” and the activity ([11]; partially purified, after Amberlite XAD 4) was 37,000 units/mg.
